Test results published in ChEMBL document CHEMBL1124557, “Pentadienyl carboxamide derivatives as antagonists of platelet-activating factor” (J Med Chem, 1989).

Legend:
[1] = test system: Cavia porcellus; assay: Ability to prevent PAF-induced bronchoconstriction in guinea pig when administered dose 0.5 mg/kg intravenously; assay type: functional; conditions: route intravenous
[2] = molecular target: Platelet-activating factor receptor (Cavia porcellus) (UniProt P21556); assay: Ability to prevent PAF-induced bronchoconstriction in guinea pig 2 hr after administration (50 mg/kg perorally); assay type: functional, organism-based
[3] = test system: Cavia porcellus; assay: Ability to prevent PAF-induced bronchoconstriction in guinea pig 2 hr after administration of compound (50 mg/kg perorally); assay type: functional; conditions: po, read-out: ID50 (the source's name)
[4] = molecular target: Platelet-activating factor receptor (Cavia porcellus) (UniProt P21556); assay: Ability to prevent PAF-induced bronchoconstriction in guinea pig when administered intravenously; assay type: functional
[5] = test system: Cavia porcellus; assay: PAF-induced capillary permeability changes are studied in guinea pig test, after intravenous administration of the compound; assay type: functional; conditions: read-out: ID50 (the source's name)
[6] = test system: Cavia porcellus; assay: Inhibition of PAF-induced bronchoconstriction in guinea pig 2 hr after p.o. administration.; assay type: functional; conditions: po, read-out: ID50 (the source's name)
[7] = test system: Cavia porcellus; assay: PAF-induced capillary permeability changes are studied in guinea pig skin test, after peroral administration of the compound; assay type: functional; conditions: po, read-out: ID50 (the source's name)
[8] = test system: Cavia porcellus; assay: Ability to prevent PAF-induced bronchoconstriction in guinea pig when administered at a dose of 1 mg/kg intravenously; assay type: functional; conditions: route intravenous
[9] = test system: Rattus norvegicus; assay: PAF-induced capillary permeability changes are studied in rat skin test, after peroral administration of the compound; assay type: functional; conditions: po, read-out: ID50 (the source's name)
[10] = test system: Cavia porcellus; assay: Ability to prevent PAF-induced bronchoconstriction in guinea pig 6 hr following 50 mg/kg p.o. administration.; assay type: functional; conditions: route oral
[11] = test system: Rattus norvegicus; assay: PAF-induced capillary permeability changes are studied in rat skin test, after intravenous administration of the compound; assay type: functional; conditions: read-out: ID50 (the source's name)
[12] = test system: Cavia porcellus; assay: Inhibitory activity against bronchoconstriction in guinea pig 2 hr after peroral administration of compound; assay type: functional; conditions: Lung, po, read-out: ID50 (the source's name)
[13] = test system: Cavia porcellus; assay: Ability to prevent PAF-induced bronchoconstriction in guinea pig when administered dose 1 mg/kg intravenously; assay type: functional; conditions: route intravenous

Sequence of Platelet-activating factor receptor (Cavia porcellus) (P21556 whole entry): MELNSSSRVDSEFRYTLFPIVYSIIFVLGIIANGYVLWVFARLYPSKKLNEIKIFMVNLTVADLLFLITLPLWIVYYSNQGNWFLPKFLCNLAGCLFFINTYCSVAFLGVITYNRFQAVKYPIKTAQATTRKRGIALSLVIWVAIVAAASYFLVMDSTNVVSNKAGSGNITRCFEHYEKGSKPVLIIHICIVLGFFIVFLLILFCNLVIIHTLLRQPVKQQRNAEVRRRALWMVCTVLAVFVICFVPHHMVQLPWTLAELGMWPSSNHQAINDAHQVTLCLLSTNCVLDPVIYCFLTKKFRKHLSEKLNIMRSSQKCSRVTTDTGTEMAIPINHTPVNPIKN

O=C(C/C=C/C=C(c1ccccc1)c1ccccc1)NCCCCc1cccnc1
inhibition in vivo at 0.5 mg/kg [1]: 60%
inhibition [2]: 35%
ED50 [3]: 0.62 mg/kg

Cc1nnc2n1-c1sc(CCC(=O)N3CCOCC3)cc1C(c1ccccc1Cl)=NC2 [APAFANT]
ID50 [4]: 0.03 mg/kg
ED50 [5]: 2.5 mg/kg
ED50 [6]: 1 mg/kg
ED50 [7]: 35 mg/kg
inhibition in vivo at 1 mg/kg [8]: 99%
ED50 [9]: 45 mg/kg
inhibition [2]: 100%
inhibition in vivo at 50 mg/kg [10]: 100%
ED50 [11]: 0.64 mg/kg

CCCCC/C(=C\C=C\C(=O)N[C@H](C)CCCc1cccnc1)c1ccc(OC)cc1
ID50 [4]: 0.05 mg/kg
ED50 [5]: 3 mg/kg
ED50 [7]: 65 mg/kg
ED50 [12]: 16 mg/kg
inhibition in vivo at 1 mg/kg [8]: 99%
ED50 [9]: 70 mg/kg
inhibition [2]: 100%
inhibition in vivo at 50 mg/kg [10]: 71%
ED50 [11]: 1.7 mg/kg

CCCCCC/C(=C\C=C\C(=O)N[C@H](C)CCCc1cccnc1)c1ccc(OC)cc1
ID50 [4]: 0.07 mg/kg
ED50 [6]: 8 mg/kg
inhibition [2]: 96%
inhibition in vivo at 50 mg/kg [10]: 14%
inhibition in vivo at 1 mg/kg [13]: 100%

COc1ccc(C(=C/C=C/C(=O)N[C@H](C)CCCc2cccnc2)c2ccc(OC)cc2)cc1
ID50 [4]: 0.25 mg/kg
ED50 [5]: 15 mg/kg
ED50 [7]: 75 mg/kg
ED50 [12]: 4 mg/kg
inhibition in vivo at 1 mg/kg [8]: 98%
ED50 [9]: 25 mg/kg
inhibition [2]: 98%
inhibition in vivo at 50 mg/kg [10]: 93%
ED50 [11]: 2 mg/kg
